This is an account of results in patent US8486975B2, “Non-nucleoside reverse transcriptase inhibitors” (Merck Canada Inc., priority 2010, dated 2013).

One test has as its target HIV-1 RT enzyme (WT) (Human immunodeficiency virus type 1 group M subtype B, UniProt P04585). Nature of the test: ECL assay for inhibition of HIV reverse transcriptase. In kind it is biochemical. The note with it: 100 nM compound; wild-type RT. As for the experimental part:
An assay to determine the in vitro inhibition of HIV reverse transcriptase by compounds of the present invention was conducted as follows: HIV-1 RT enzyme (0.1 nM) was combined with inhibitor or DMSO (10%) in assay buffer (50 mM Tris-HCl, pH 7.8, 1 mM dithiothreitol, 6 mM MgCl2, 80 mM KCl, 0.025% CHAPS, 0.1 mM EGTA), and the mixture preincubated for 30 minutes at room temperature in microtiter plates (Corning Costar #3365). 50 μL reaction mixtures were initiated with a combination of primer-template substrate (5 nM final concentration) and dNTPs (0.6 μM dNTPs, 20 nM Ruthenium-dUTP). The heterodimeric nucleic acid substrate was generated by annealing the DNA primer biotinylated-pD500 (obtained from Integrated DNA Technologies) to t500, a 500 nucleotide RNA template created by in vitro transcription (see Shaw-Reid et al., J. Biol. Chem., 278: 2777-2780). After a 90 minute incubation at 37° C., reactions were quenched by 60 μL of quenching buffer containing 0.05 M EDTA, 0.7% BSA, 0.07% Tween-20 and 0.017% sodium azide in PBS. […] The plate is then left at room temperature for 1 hour, after which it is washed 3 times with 200 μL per well of PBS. 150 μL of 1× read buffer T (MSD) is added and the plate read on the Sector Imager 6000 (MSD).

A further test relates to wild-type HIV-1. The test is described as follows: Spread assay: inhibition of acute HIV-1 infection of T-lymphoid cells (wild-type). In kind it is cell-based. How it is done:
Assays for the inhibition of acute HIV-1 infection of T-lymphoid cells (alternatively referred to herein as the “spread assay”) were conducted in accordance with Vacca, J. P. et al., Proc. Natl. Acad. Sci. USA 1994, 91: 4096. […] The compounds were also tested using a variant of the assay using HIV strains containing the K103N and Y181C mutants, and found to be less than 20-fold shifted relative to wild-type in all cases.

For `Cn1c(Cn2ccc(C(F)(F)F)c(Oc3cc(Cl)cc(C#N)c3)c2=O)n[nH]c1=O` [Example 1-1, 3-Chloro-5-({1-[(4-methyl-5-oxo-4,5-dihydro-1H-1,2,4-triazol-3-yl)methyl]-2-oxo-4-(trifluoromethyl)-1,2-dihydropyridin-3-yl}oxy)benzonitrile], at HIV-1 RT enzyme (WT), the inhibition (usually the change of the read-out against control, counted positive when it falls) at 0.1 µM is 85%. The “Spread (WT) CIC95 (nM) (50% NHS)” value in the test on wild-type HIV-1 turned out to be 19 nM.

Consider `CCn1c(Cn2ccc(C(F)(F)F)c(Oc3cc(Cl)cc(C#N)c3)c2=O)n[nH]c1=O` [Example 2-1, 3-Chloro-5-({1-[(4-ethyl-5-oxo-4,5-dihydro-1H-1,2,4-triazol-3-yl)methyl]-2-oxo-4-(trifluoromethyl)-1,2-dihydropyridin-3-yl}oxy)benzonitrile], for which the inhibition at 0.1 µM at HIV-1 RT enzyme (WT) was found to be 75%. The “Spread (WT) CIC95 (nM) (50% NHS)” value in the test with wild-type HIV-1 is given as 26 nM.

On to `Cn1c(Cn2ccc(Cl)c(Oc3cc(Cl)cc(C#N)c3)c2=O)n[nH]c1=O` [Example 3-1, 3-Chloro-5-({4-chloro-1-[(4-methyl-5-oxo-4,5-dihydro-1H-1,2,4-triazol-3-yl)methyl]-2-oxo-1,2-dihydropyridin-3-yl}oxy)benzonitrile], for which the inhibition at 0.1 µM on HIV-1 RT enzyme (WT) amounted to 75%. Moreover, the “Spread (WT) CIC95 (nM) (50% NHS)” value in the test with wild-type HIV-1 turned out to be 15 nM.

On to `Cn1c(Cn2ccc(Br)c(Oc3cc(Cl)cc(C#N)c3)c2=O)n[nH]c1=O` [Example 4-1, 3-({4-Bromo-1-[(4-methyl-5-oxo-4,5-dihydro-1H-1,2,4-triazol-3-yl)methyl]-2-oxo-1,2-dihydropyridin-3-yl}oxy)-5-chlorobenzonitrile], for which the inhibition at 0.1 µM on HIV-1 RT enzyme (WT) came to 90%. In addition, the “Spread (WT) CIC95 (nM) (50% NHS)” value in the test with wild-type HIV-1 amounted to 12 nM.

As to `Cn1c(Cn2ccc(C(C)(F)F)c(Oc3cc(Cl)cc(C#N)c3)c2=O)n[nH]c1=O` [Example 5-1, 3-Chloro-5-({4-(1,1-difluoroethyl)-1-[(4-methyl-5-oxo-4,5-dihydro-1H-1,2,4-triazol-3-yl)methyl]-2-oxo-1,2-dihydropyridin-3-yl}oxy)benzonitrile], at HIV-1 RT enzyme (WT), the inhibition at 0.1 µM turned out to be 75%. Moreover, the “Spread (WT) CIC95 (nM) (50% NHS)” value in the test with wild-type HIV-1 was found to be 10 nM.

For the molecule `Cn1c(Cn2cc(Br)c(Cl)c(Oc3cc(Cl)cc(C#N)c3)c2=O)n[nH]c1=O` [Example 6-1, 3-({5-Bromo-4-chloro-1-[(4-methyl-5-oxo-4,5-dihydro-lH-l,2,4-triazol-3-yl)methyl]-2-oxo-1,2-dihydropyridin-3-yl}oxy)-5-chlorobenzonitrile], the inhibition at 0.1 µM at HIV-1 RT enzyme (WT) was 90%. Moreover, the “Spread (WT) CIC95 (nM) (10% FBS)” value in the test with wild-type HIV-1 is reported as 5.1 nM.

As for `Cn1c(Cn2cc(Br)c(C(F)(F)F)c(Oc3cc(Cl)cc(C#N)c3)c2=O)n[nH]c1=O` [Example 7-1, 3-({5-Bromo-1-[(4-methyl-5-oxo-4,5-dihydro-1H-1,2,4-triazol-3-yl)methyl]-2-oxo-4-(trifluoromethyl)-1,2-dihydropyridin-3-yl}oxy)-5-chlorobenzonitrile], the inhibition at 0.1 µM at HIV-1 RT enzyme (WT) came to 77%. The “Spread (WT) CIC95 (nM) (50% NHS)” value with wild-type HIV-1 amounted to 23 nM.

As for `Cn1c(Cn2ccc(C(F)(F)F)c(Oc3cc(C#N)cc(C(F)F)c3)c2=O)n[nH]c1=O` [Example 8-1, 3-(Difluoromethyl)-5-({1-[(4-methyl-5-oxo-4,5-dihydro-1H-1,2,4-triazol-3-yl)methyl]-2-oxo-4-(trifluoromethyl)-1,2-dihydropyridin-3-yl}oxy)benzonitrile], at HIV-1 RT enzyme (WT), the inhibition at 0.1 µM stood at 75%. The “Spread (WT) CIC95 (nM) (10% FBS)” value in the test on wild-type HIV-1 turned out to be 7.3 nM.
